Consider 20 compounds from ChEMBL document CHEMBL3779781, “New direct inhibitors of InhA with antimycobacterial activity based on a tetrahydropyran scaffold” (Eur J Med Chem, 2016).

In brackets after ≈: the same amount, converted by molar mass.

Series [1] in a line: Inhibition of Mycobacterium tuberculosis InhA using 2-trans-decenoyl-CoA as substrate by fluorimetric analysis in presence of NADH.
The subject of series [2] is Mycobacterium tuberculosis. Nature of the series: Antimycobacterial activity against Mycobacterium tuberculosis H37Rv ATCC 25618 after 2 weeks. The following applies: H37Rv ATCC 25618, 336 h. Type of series: functional.
Series [3] can be described thus: Cytotoxicity against human HepG2 cells by ATP bioluminescence assay. Type of series: cell-based. The following applies: read-out: TD50 (the source's name).
Series [4] is described as follows: Kinetic solubility of compound in DMSO/phosphate buffered saline at pH7.4 by chemiluminescent nitrogen detection method. It counts as physicochemical. The note with it: pH 7.4, read-out: Kinetic_solubility.
In series [5] the test system is Mycobacterium tuberculosis. Kind of series: Antimycobacterial activity against Mycobacterium tuberculosis H37Rv ATCC 25618 infected in human THP1 cells assessed as reduction in cell viability after 5 days by luciferase reporter gene assay. Type of series: functional. The note with it: H37Rv ATCC 25618, THP-1, 120 h.
Series [6] deals with Voltage-gated inwardly rectifying potassium channel KCNH2 (Homo sapiens, UniProt Q12809). Kind of series: Inhibition of human ERG by QPatch assay. In general terms: Patch clamp records ionic current or voltage across a cell membrane.
Series [7] is described as follows: Selectivity index, ratio of TD50 for human HepG2 cells to MIC for Mycobacterium tuberculosis H37Rv ATCC 25618. It counts as toxicity, cell-based. The following applies: read-out: Selectivity Index.
Another series relates to Moraxella catarrhalis. Kind of series: Antibacterial activity against Moraxella catarrhalis 1502 by broth microdilution assay. It counts as functional. On the technique in general: In broth dilution the organism is exposed to a series of concentrations in liquid medium.
A further series deals with Enterococcus faecium. Kind of series: Antibacterial activity against Enterococcus faecium X7501 by broth microdilution assay. Type of series: functional.
For series [8], the system named is Staphylococcus aureus. Nature of the series: Antibacterial activity against Staphylococcus aureus Oxford by broth microdilution assay. It counts as functional.
In a further series the test system is Escherichia coli. Nature of the series: Antibacterial activity against Escherichia coli 3 by broth microdilution assay. It counts as functional.
Series [9] has as its system Streptococcus pyogenes. Kind of series: Antibacterial activity against Streptococcus pyogenes 1307006P by broth microdilution assay. It counts as functional.
Series [10] has as its system Streptococcus pneumoniae. Kind of series: Antibacterial activity against Streptococcus pneumoniae 1629 by broth microdilution assay. It counts as functional.
In series [11] the test system is Staphylococcus aureus. Nature of the series: Antibacterial activity against Staphylococcus aureus WCUH29 by broth microdilution assay. Type of series: functional.
Series [12] deals with Streptococcus pneumoniae. Kind of series: Antibacterial activity against Streptococcus pneumoniae ERY2 by broth microdilution assay. Type of series: functional.
Series [13] concerns Staphylococcus aureus. Kind of series: Antibacterial activity against Staphylococcus aureus WCUH29 fmt by broth microdilution assay. It counts as functional.
For another series, the system named is Enterococcus faecalis. Kind of series: Antibacterial activity against Enterococcus faecalis 1 by broth microdilution assay. Type of series: functional.
The test system of series [14] is Haemophilus influenzae. Kind of series: Antibacterial activity against Haemophilus influenzae H128 by broth microdilution assay. It counts as functional.
Series [15] concerns Haemophilus influenzae. Nature of the series: Antibacterial activity against Haemophilus influenzae H128 with Acr A- genotype by broth microdilution assay. It counts as functional.
In series [16] the test system is Streptococcus pyogenes. Kind of series: Antibacterial activity against Streptococcus pyogenes 1308007P by broth microdilution assay. It counts as functional.
The test system of series [17] is Streptococcus pneumoniae. Kind of series: Antibacterial activity against Streptococcus pneumoniae N1387 by broth microdilution assay. Type of series: functional.
For series [18], the system named is Haemophilus influenzae. Nature of the series: Antibacterial activity against Haemophilus influenzae Q1 by broth microdilution assay. Type of series: functional.
In series [19] the test system is Mycobacterium tuberculosis. Nature of the series: Antimycobacterial activity against Mycobacterium tuberculosis H37Rv by broth microdilution assay. It counts as functional.
Series [20] concerns Mycobacterium tuberculosis. Kind of series: Antimycobacterial activity against Mycobacterium tuberculosis H37Rv. Type of series: functional.

Sequence of Voltage-gated inwardly rectifying potassium channel KCNH2 (Q12809 whole entry): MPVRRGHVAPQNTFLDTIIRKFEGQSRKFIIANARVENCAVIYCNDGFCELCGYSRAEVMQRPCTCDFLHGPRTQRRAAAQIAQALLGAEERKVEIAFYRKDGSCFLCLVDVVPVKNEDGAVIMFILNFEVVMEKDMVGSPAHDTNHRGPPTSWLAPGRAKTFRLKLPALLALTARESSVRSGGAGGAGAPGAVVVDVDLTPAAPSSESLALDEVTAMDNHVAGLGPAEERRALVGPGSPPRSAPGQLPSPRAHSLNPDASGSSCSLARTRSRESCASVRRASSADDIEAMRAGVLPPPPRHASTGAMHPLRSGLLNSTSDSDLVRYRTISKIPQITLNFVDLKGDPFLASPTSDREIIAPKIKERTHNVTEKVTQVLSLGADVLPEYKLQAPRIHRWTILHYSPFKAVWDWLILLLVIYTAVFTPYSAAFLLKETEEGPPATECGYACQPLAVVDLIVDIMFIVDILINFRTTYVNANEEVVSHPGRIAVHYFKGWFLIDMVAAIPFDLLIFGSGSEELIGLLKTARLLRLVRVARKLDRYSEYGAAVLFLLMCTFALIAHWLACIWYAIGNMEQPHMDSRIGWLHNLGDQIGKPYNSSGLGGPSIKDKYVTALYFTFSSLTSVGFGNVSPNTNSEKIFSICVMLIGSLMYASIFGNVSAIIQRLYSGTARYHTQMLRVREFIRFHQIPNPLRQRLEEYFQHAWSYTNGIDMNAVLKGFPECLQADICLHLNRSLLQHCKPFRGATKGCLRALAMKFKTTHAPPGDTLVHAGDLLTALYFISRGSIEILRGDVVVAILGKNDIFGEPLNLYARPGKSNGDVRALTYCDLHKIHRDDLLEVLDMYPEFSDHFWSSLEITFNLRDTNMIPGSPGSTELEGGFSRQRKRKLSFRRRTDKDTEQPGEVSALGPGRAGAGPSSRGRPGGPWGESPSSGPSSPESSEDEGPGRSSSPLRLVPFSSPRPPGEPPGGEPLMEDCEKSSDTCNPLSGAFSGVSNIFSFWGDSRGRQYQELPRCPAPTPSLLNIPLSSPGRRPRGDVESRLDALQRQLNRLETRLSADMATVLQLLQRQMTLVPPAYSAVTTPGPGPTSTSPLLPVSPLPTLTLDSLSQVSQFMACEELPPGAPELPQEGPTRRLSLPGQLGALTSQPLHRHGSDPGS

Turning to `Cc1cc(C)n(Cc2ccc(C(=O)NCC3(c4ccc5c(c4)OCO5)CCOCC3)cc2)n1`, in series [1], the IC50 amounted to 7.94 µM. In addition, the MIC in series [2] is 125 µM (≈ 55.9 µg/mL). The CC50 in [3] is above 100 µM. Moreover, in [4], the solubility kinetic is at least 478 µM.

With `Cc1cnc(Nc2ccc(C(=O)NCC3(c4nc(-c5ccccc5)cs4)CCOCC3)cc2)s1`, the IC50 in series [1] is above 10 µM. This compound also showed an MIC in series [2] above 80 µM. In [3], the CC50 was above 100 µM. For the same compound, in [4], the solubility kinetic is below 1 µM.

As for `O=C(NCC1(c2nc(-c3ccccc3)cs2)CCOCC1)c1ccc(CN2CCCCC2)cc1`, the IC50 in series [1] was above 1 µM. In series [2], this compound registered an MIC above 125 µM. The CC50 in series [3] is 79.4 µM. The solubility kinetic in series [4] was at least 396 µM.

As for `O=C(NCC1(c2nc(-c3ccccc3)cs2)CCOCC1)c1ccc(-c2cnco2)cc1`, the IC50 in series [1] was above 1 µM. In addition, the MIC in [2] amounted to 125 µM (≈ 55.7 µg/mL). In series [3], the CC50 was found to be 79.4 µM. In [4], the solubility kinetic was 71 µM (≈ 31.6 µg/mL).

Consider `Cc1cc(C)n(-c2ccc(C(=O)NCC3(c4nc(-c5ccccc5)cs4)CCOCC3)cc2)n1`, for which, in [1], the IC50 is above 100 µM. In series [2], inhibition of growth (MIC) required 80 µM (≈ 37.8 µg/mL). Also, the CC50 in series [3] worked out at 87.1 µM. Also, the solubility kinetic in series [4] was found to be 33 µM (≈ 15.6 µg/mL).

For the compound `COc1ccc(C2(CNC(=O)c3ccc(Cn4nc(C)cc4C)cc3)CCOCC2)cc1`, the IC50 in [1] stood at 6.38 µM. In series [2], this compound came in with an MIC above 125 µM. The CC50 in series [3] is above 100 µM. Moreover, the solubility kinetic in [4] was at least 458 µM.

On to `Cc1cc(C)n(Cc2ccc(C(=O)NCC3(c4nc(-c5ccccc5)cs4)CCOCC3)cc2)n1`, for which the figures for the IC50 in series [1] and in series [6] were 0.02 µM and 44.9 µM, respectively. Moreover, the MIC in [2] was 11.7 µM (≈ 5.69 µg/mL); in [20] it was 7.8 µM. Also, in series [3], the CC50 amounted to 100 µM. In addition, the solubility kinetic in series [4] stood at 115 µM (≈ 56 µg/mL). Besides, the IC90 in series [5] was 3.98 µM. Also, in series [7], the selectivity ratio turned out to be 8.5. Also, the MIC80 in the series on Moraxella catarrhalis is 32 µg/mL (≈ 65.8 µM); in the series with Enterococcus faecium, above 64 µg/mL; in the series with Staphylococcus aureus [8] it was above 64 µg/mL; with Escherichia coli, above 64 µg/mL; against Streptococcus pyogenes [9], above 64 µg/mL; with Streptococcus pneumoniae [10], above 64 µg/mL. Moreover, the MIC80 with Staphylococcus aureus [11], against Streptococcus pneumoniae [12], in the series on Staphylococcus aureus [13], against Enterococcus faecalis, in the series with Haemophilus influenzae [14] and with Haemophilus influenzae [15] was above 64 µg/mL in each case. Further, the MIC80 in the series on Streptococcus pyogenes [16] was above 64 µg/mL; in the series with Streptococcus pneumoniae [17] it was above 64 µg/mL; in the series on Haemophilus influenzae [18], above 64 µg/mL; in [19] it was 5.7 µg/mL (≈ 11.7 µM).

Take `Cn1ccc(Nc2ccc(C(=O)NCC3(c4nc(-c5ccccc5)cs4)CCOCC3)cc2)n1`: the IC50 in series [1] came to 5.56 µM. For the same compound, in [2], the MIC is above 125 µM. Also, the CC50 in series [3] was found to be 79.4 µM. Moreover, the solubility kinetic in series [4] was determined as 48 µM (≈ 22.7 µg/mL).

For `O=C(NCC1(c2nc(-c3ccccc3)cs2)CCOCC1)c1ccc(-n2ccnc2)cc1`, the IC50 in series [1] was above 1 µM. For the same compound, the MIC in series [2] was above 125 µM. The CC50 in [3] was above 100 µM. Moreover, the solubility kinetic in series [4] was 193 µM (≈ 85.8 µg/mL).

As for `O=C(NCC1(c2nc(-c3ccccc3)cs2)CCOCC1)c1ccc(-n2cncn2)cc1`, the IC50 in series [1] is above 10 µM. Besides, the MIC in [2] is 125 µM (≈ 55.7 µg/mL). Besides, the CC50 in series [3] was above 100 µM. Also, the solubility kinetic in series [4] was 191 µM (≈ 85.1 µg/mL).

In the case of `O=C(NCC1(c2nc(-c3ccccc3)cs2)CCOCC1)c1ccc(Nc2nncs2)cc1`, the IC50 in series [1] is above 10 µM. Moreover, the MIC in [2] is above 125 µM. Besides, the CC50 in series [3] was 63.1 µM. In [4], the solubility kinetic was 29 µM (≈ 13.9 µg/mL).

Regarding `O=C(NCC1(c2nc(-c3ccccc3)cs2)CCOCC1)c1ccc(Nc2ccccn2)cc1`, the IC50 in [1] is above 10 µM. The MIC in series [2] is above 80 µM. Further, in series [3], the CC50 was 63.1 µM. The solubility kinetic in series [4] was 12 µM (≈ 5.65 µg/mL).

As for `Cn1c(Nc2ccc(C(=O)NCC3(c4nc(-c5ccccc5)cs4)CCOCC3)cc2)nc2ccccc21`, in series [1], the IC50 is above 10 µM. This compound also registered an MIC in series [2] of 94 µM (≈ 49.2 µg/mL). Besides, in series [3], the CC50 stood at 20 µM. Further, the solubility kinetic in [4] worked out at 10 µM (≈ 5.24 µg/mL).

Take `O=C(NCC1(c2nc(-c3ccccc3)cs2)CCOCC1)c1ccc(Nc2nc3ccccc3s2)cc1`: in series [1], the IC50 is above 10 µM. Further, the MIC in series [2] was above 125 µM. The CC50 in [3] amounted to 12.6 µM. Besides, the solubility kinetic in series [4] came out at 4 µM (≈ 2.11 µg/mL).

As for `O=C(NCC1(c2nc(-c3ccccc3)cs2)CCOCC1)c1ccc(N2CCOCC2)cc1`, in series [1], the IC50 is above 1 µM. The compound further had an MIC in [2] above 125 µM. Moreover, in series [3], the CC50 is above 100 µM. The solubility kinetic in series [4] was determined as 138 µM (≈ 64 µg/mL).

As to `COc1ccccc1-c1csc(C2(CNC(=O)c3ccc(Cn4nc(C)cc4C)cc3)CCOCC2)n1`, in series [1], the IC50 came out at 0.036 µM. In series [2], this compound came in with an MIC of 5 µM (≈ 2.58 µg/mL). Further, the CC50 in series [3] amounted to 50.1 µM. The solubility kinetic in series [4] was 78 µM (≈ 40.3 µg/mL). Further, the selectivity ratio in series [7] was 10.

For the compound `COc1cccc(-c2csc(C3(CNC(=O)c4ccc(Cn5nc(C)cc5C)cc4)CCOCC3)n2)c1`, the IC50 in [1] is 0.323 µM. The same compound returned an MIC in series [2] of 20 µM (≈ 10.3 µg/mL). The CC50 in series [3] turned out to be 50.1 µM. Also, the solubility kinetic in series [4] was found to be 72 µM (≈ 37.2 µg/mL).

For the compound `Cc1cc(C)n(Cc2ccc(C(=O)NCC3(c4ccccn4)CCOCC3)cc2)n1`, the IC50 in series [1] was above 10 µM. Besides, the MIC in series [2] was above 125 µM. Further, the CC50 in series [3] was above 100 µM. Also, the solubility kinetic in series [4] was at least 445 µM.

With `Cc1cc(C)n(Cc2ccc(C(=O)NCC3(c4ccc(-c5ccccc5)cc4)CCOCC3)cc2)n1`, the IC50 in series [1] is 0.029 µM. The compound further yielded an MIC in [2] of 16 µM (≈ 7.67 µg/mL). For the same compound, in series [3], the CC50 is 79.4 µM. In addition, the solubility kinetic in series [4] came to 77 µM (≈ 36.9 µg/mL). The selectivity ratio in [7] came out at 5.

`NNC(=O)c1ccncc1` [ISONIAZID] registered an MIC in series [20] of 0.5 µg/mL.

In general, IC50 refers to the point on the concentration scale where inhibition reaches its midpoint. The term MIC denotes the lowest concentration found to suppress growth. Low readings indicate greater potency, high ones weaker potency. By IC90 is commonly meant the concentration needed for an effect of 90%.
